By Ki is commonly meant the dissociation constant of the complex between target and ligand, obtained from inhibition or displacement. Low values mean a stronger hold on the target, high ones a looser hold on the target.

This note sets out measurements from US9023864B2, “Indole derivatives as CRTH2 receptor antagonists” (Merck Sharp & Dohme Corp., priority 2009, dated 2015).

This assay addresses T1, hCRTH2 (Homo sapiens, UniProt Q9Y5Y4).
T1 construct: expressed in transfected cells; host or cells: HEK cell line expressing hCRTH2 (HEK-hCRTH2); membranes
T1 sequence (Q9Y5Y4 1-395): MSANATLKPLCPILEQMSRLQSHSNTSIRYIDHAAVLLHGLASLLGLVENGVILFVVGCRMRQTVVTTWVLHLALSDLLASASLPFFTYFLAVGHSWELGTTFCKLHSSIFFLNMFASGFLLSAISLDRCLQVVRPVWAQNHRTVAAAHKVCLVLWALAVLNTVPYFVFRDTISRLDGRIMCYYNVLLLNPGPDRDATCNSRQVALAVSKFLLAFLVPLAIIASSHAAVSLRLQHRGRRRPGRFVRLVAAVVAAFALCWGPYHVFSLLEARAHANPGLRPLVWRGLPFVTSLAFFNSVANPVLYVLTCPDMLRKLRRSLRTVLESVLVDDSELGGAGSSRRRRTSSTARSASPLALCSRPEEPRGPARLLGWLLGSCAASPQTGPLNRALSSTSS
The experiment in a line: Radioligand binding assay ([3H]PGD2 competition, membranes from HEK-hCRTH2 cell line). The note with it: 0.7 nM [3H]PGD2, membrane protein from HEK-hCRTH2 cell line, 60 min at room temperature; values given as ranges. The procedure: Radioligand Binding Assay.
Radioligand binding assays were performed at room temperature in 10 mM HEPES/KOH pH 7.4, 1 mM EDTA containing 10 mM MnCl2 and 0.7 nM [^3H]PGD2 (NEN, 171 Ci mmol^−1), in a final volume of 0.2 ml. Competing ligands were diluted in dimethylsulfoxide (Me2SO) that was kept constant at 1% (v/v) of the final incubation volume. The reaction was initiated by the addition of 8-20 μg of membrane protein prepared from a HEK-hCRTH2 cell line. Total and non-specific binding were determined in the absence and the presence of 10 μM PGD2, respectively. Under these conditions, specific binding (total minus non-specific) of the radioligand to the receptor reached equilibrium within 50 min and was stable up to 180 min. The reaction was routinely conducted for 60 min at room temperature and terminated by rapid filtration through prewetted Unifilters GF/C (Packard), using a Tomtec MachIII semi-automated harvester (for HEK-hCRTH2). The filters were then washed with 4 ml of the same buffer and residual radioligand bound to the filter was determined by liquid scintillation counting following equilibration in 25 μl Ultima Gold F™ (Unifilter) (Packard). The Ki (in nM) values for representative compounds of the present invention are as follows: ≦5: Examples 3.1, 5.1, 6.1, 7.1, 8.1/8A, 9.1, 26, 27.1, 28.1, 29.1, 30, 31.1, 31.3, 32.1, 32.4, 33.1, 34.1, 36.1, 38.1, 39, 40, 41; >5 and ≦10: Examples, 4, 5.3, 29.2; >10 and ≦50: Examples 1, 10, 14, 21, 22, 25, 31.4, 32.3, 35, 36.2, 37; >50 and ≦100: Examples 2, 5.4, 6.2, 27.2, 28.2; >100: Examples 3.2, 5.2, 7.2, 8.2, 9.2, 11, 12, 13, 15, 16, 17, 18, 19, 20, 23, 24, 31.2, 32.2, 33.2, 34.2, 38.2.
Compound `O=C(O)Cc1c2n(c3c(F)cccc13)CC(n1nncc1Cc1ccc(F)c(F)c1)CC2` (single isomer, unassigned) [Example 33.1, {7-[5-(3,4-difluorobenzyl)-1H-1,2,3-triazol-1-yl]-4-fluoro-6,7,8,9-tetrahydropyrido[1,2-a]-indol-10-yl}acetic acid] gave a Ki of no more than 5 nM.

The compound `O=C(O)Cc1c2n(c3c(F)cccc13)CC(n1nncc1Cc1ccc(F)c(F)c1)CC2` (single isomer, unassigned) [Example 33.2, {7-[5-(3,4-difluorobenzyl)-1H-1,2,3-triazol-1-yl]-4-fluoro-6,7,8,9-tetrahydropyrido[1,2-a]-indol-10-yl}acetic acid] yielded an inhibition constant (Ki) greater than 100 nM.

In turn, `O=C(O)Cc1c2n(c3c(F)cccc13)CC(n1nncc1Cc1ccc(Cl)cc1)CC2` (single isomer, unassigned) [Example 34.1, {7-[5-(4-chlorobenzyl)-1H-1,2,3-triazol-1-yl]-4-fluoro-6,7,8,9-tetrahydropyrido[1,2-a]indol-10-yl}acetic acid] returned a Ki of no more than 5 nM.

As for `O=C(O)Cc1c2n(c3c(F)cccc13)CC(n1nncc1Cc1ccc(Cl)cc1)CC2` (single isomer, unassigned) [Example 34.2, {7-[5-(4-chlorobenzyl)-1H-1,2,3-triazol-1-yl]-4-fluoro-6,7,8,9-tetrahydropyrido[1,2-a]indol-10-yl}acetic acid], the Ki is greater than 100 nM.

Compound `Cc1nnn(C2CCc3c(CC(=O)O)c4cccc(F)c4n3C2)c1Cc1ccc(F)cc1` (single isomer, unassigned) [Example 36.1, {4-Fluoro-7-[5-(4-fluorobenzyl)-4-methyl-1H-1,2,3-triazol-1-yl]-6,7,8,9-tetrahydropyrido[1,2-a]indol-10-yl}acetic acid] had a Ki of no more than 5 nM.

`Cc1nnn(C2CCc3c(CC(=O)O)c4cccc(F)c4n3C2)c1Cc1ccc(F)cc1` (single isomer, unassigned) [Example 36.2, {4-Fluoro-7-[5-(4-fluorobenzyl)-4-methyl-1H-1,2,3-triazol-1-yl]-6,7,8,9-tetrahydropyrido[1,2-a]indol-10-yl}acetic acid] came in with a Ki of 10 to 50 nM.

Consider `CC1C(n2nncc2Cc2ccc(F)cc2)CCc2c(CC(=O)O)c3cccc(F)c3n21` (single isomer, unassigned) [Example 38.1, {4-Fluoro-7-[5-(4-fluorobenzyl)-1H-1,2,3-triazol-1-yl]-6-methyl-6,7,8,9-tetrahydropyrido[1,2-α]indol-10-yl}acetic acid], for which the Ki is no more than 5 nM.

In turn, `CC1C(n2nncc2Cc2ccc(F)cc2)CCc2c(CC(=O)O)c3cccc(F)c3n21` (single isomer, unassigned) [Example 38.2, {4-Fluoro-7-[5-(4-fluorobenzyl)-1H-1,2,3-triazol-1-yl]-6-methyl-6,7,8,9-tetrahydropyrido[1,2-α]indol-10-yl}acetic acid] gave a Ki greater than 100 nM.

In turn, `CC(C)(c1ccc(F)cc1)c1cnnn1C1CCc2c(CC(=O)O)c3cccc(F)c3n2C1` (single isomer, unassigned) [Example 39, (4-Fluoro-7-{5-[1-(4-fluorophenyl)-1-methylethyl]-1H-1,2,3-triazol-1-yl}-6,7,8,9-tetrahydropyrido[1,2-a]indol-10-yl)acetic acid] registered an inhibitory constant (Ki) of no more than 5 nM.

In the case of `O=C(O)Cc1c2n(c3ccccc13)CC(n1nncc1Cc1ccc(F)cc1F)CC2` (single isomer, unassigned) [Example 40, {7-[5-(2,4-difluorobenzyl)-1H-1,2,3-triazol-1-yl]-6,7,8,9-tetrahydropyrido[1,2-a]-indol-10-yl}acetic acid], the Ki is no more than 5 nM.

On to `O=C(O)Cc1c2n(c3c(F)cccc13)CC(n1nncc1Cc1ccc(F)cc1F)CC2` (single isomer, unassigned) [Example 41, {7-[5-(2,4-difluorobenzyl)-1H-1,2,3-triazol-1-yl]-4-fluoro-6,7,8,9-tetrahydro-pyrido[1,2-a]indol-10-yl}acetic acid], for which the inhibition constant (Ki) is no more than 5 nM.

As for `O=C(O)Cc1c2n(c3ccccc13)CC(n1cc(Cc3ccccc3)nn1)CC2` (stereo not drawn) [Example 1, [7-(4-Benzyl-[1,2,3]triazol-1-yl)-6,7,8,9-tetrahydropyrido[1,2-α]indol-10-yl]-acetic acid], the Ki lay within 10 to 50 nM.

In turn, `COc1ccc(-c2cn(C3CCc4c(CC(=O)O)c5ccccc5n4C3)nn2)cc1` (stereo not drawn) [Example 2, {7-[4-(4-Methoxy-phenyl)-[1,2,3]triazol-1-yl]-6,7,8,9-tetrahydropyrido[1,2-α]indol-10-yl}-acetic acid] came in with a Ki of 50 to 100 nM.

The compound `O=C(O)Cc1c2n(c3ccccc13)CC(n1nncc1COc1c(Cl)cccc1Cl)CC2` (stereo not drawn) [Example 4, (7-{5-[(2,6-dichlorophenoxy)methyl]-1H-1,2,3-triazol-1-yl}-6,7,8,9-tetrahydropyrido[1,2-α]indol-10-yl)acetic acid] had an inhibition constant Ki of 5 to 10 nM.

`O=C(O)Cc1c2n(c3c(F)cccc13)C[C@H](n1nncc1Cc1ccc(F)cc1)CC2` [Example 8.1, {(7R)-4-Fluoro-7-[5-(4-fluorobenzyl)-1H-[1,2,3]triazol-1-yl]-6,7,8,9-tetrahydropyrido[1,2-a]-indol-10-yl}-acetic acid] gave a Ki of no more than 5 nM.

As to `O=C(O)Cc1c2n(c3ccccc13)CC(n1cc(-c3ccc(F)cc3)nn1)CC2` (stereo not drawn) [Example 10, {7-[4-(4-Fluoro-phenyl)-[1,2,3]triazol-1-yl]-6,7,8,9-tetrahydropyrido[1,2-α]indol-10-yl}-acetic acid], the Ki was 10 to 50 nM.

Turning to `CS(=O)(=O)NCCCCc1cn(C2CCc3c(CC(=O)O)c4ccccc4n3C2)nn1` (stereo not drawn) [Example 11, {7-[4-(4-Methanesulfonylamino-butyl)-[1,2,3]triazol-1-yl]-6,7,8,9-tetrahydropyrido[1,2-α]indol-10-yl}-acetic acid], the Ki is greater than 100 nM.

The compound `CC(C)C(O)c1cn(C2CCc3c(CC(=O)O)c4ccccc4n3C2)nn1` (stereo not drawn) [Example 12, {7-[4-(1-Hydroxy-2-methyl-propyl)-[1,2,3]triazol-1-yl]-6,7,8,9-tetrahydropyrido[1,2-α]indol-10-yl}-acetic acid] registered a Ki greater than 100 nM.

In turn, `CC(O)(c1ccccc1)c1cn(C2CCc3c(CC(=O)O)c4ccccc4n3C2)nn1` (stereo not drawn) [Example 13, {7-[4-(1-Hydroxy-1-phenyl-ethyl)-[1,2,3]triazol-1-yl]-6,7,8,9-tetrahydropyrido[1,2-α]indol-10-yl}-acetic acid] gave a Ki greater than 100 nM.

`O=C(O)Cc1c2n(c3ccccc13)CC(n1cc(COc3ccccc3)nn1)CC2` (stereo not drawn) [Example 14, [7-(4-Phenoxymethyl-[1,2,3]triazol-1-yl)-6,7,8,9-tetrahydropyrido[1,2-α]indol-10-yl]-acetic acid]: the Ki is 10 to 50 nM.

Consider `CS(=O)(=O)c1ccc(-c2cn(C3CCc4c(CC(=O)O)c5ccccc5n4C3)nn2)cc1` (stereo not drawn) [Example 15, {7-[4-(4-Methanesulfonyl-phenyl)-[1,2,3]triazol-1-yl]-6,7,8,9-tetrahydropyrido[1,2-α]indol-10-yl}-acetic acid], for which the Ki was greater than 100 nM.

As to `CC(C)(O)c1ccc(-c2cn(C3CCc4c(CC(=O)O)c5ccccc5n4C3)nn2)cc1` (stereo not drawn) [Example 16, (7-{4-[4-(1-Hydroxy-1-methyl-ethyl)-phenyl]-[1,2,3]triazol-1-yl}-6,7,8,9-tetrahydropyrido[1,2-α]indol-10-yl)-acetic acid], the Ki was greater than 100 nM.
